# Reference: BindingDB's records for doi:10.1111/j.1600-0773.1996.tb00261.x (Uppsala University, 1996)
# Where a SMILES comes first, the peptide text is derived from it. [ ]: non-standard residue; d: D form. Met(O2) = CS(=O)(=O)CC[C@H](N)C(=O)O
# Target: Melanocortin receptor 4 (Homo sapiens, UniProt P32245)
# Sequence (P32245 whole entry): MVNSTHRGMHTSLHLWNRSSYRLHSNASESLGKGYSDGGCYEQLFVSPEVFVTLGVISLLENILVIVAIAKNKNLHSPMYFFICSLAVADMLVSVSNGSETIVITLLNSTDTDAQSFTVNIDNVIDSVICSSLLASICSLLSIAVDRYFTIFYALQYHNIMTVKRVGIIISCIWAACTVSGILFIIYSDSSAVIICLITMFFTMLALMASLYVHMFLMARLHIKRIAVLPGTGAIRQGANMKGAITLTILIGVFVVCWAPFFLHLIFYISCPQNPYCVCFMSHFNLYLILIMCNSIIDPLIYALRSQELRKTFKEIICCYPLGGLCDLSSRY
row,Compound,Ki
1,CS(=O)(=O)CC[C@H](N)C(=O)N[C@@H](CCC(=O)O)C(=O)N[C@@H](Cc1c[nH]cn1)C(=O)N[C@@H](Cc1ccccc1)C(=O)N[C@H](CCCCN)C(=O)N[C@@H](Cc1ccccc1)C(=O)O [CAS_50913-82-1] (H-[Met(O2)]EHF[dK]F-OH),> 10 µM
2,CSCC[C@H](N)C(=O)N[C@@H](CCC(=O)O)C(=O)N[C@@H](Cc1cnc[nH]1)C(=O)N[C@@H](Cc1ccccc1)C(=O)N[C@@H](CCCNC(=N)N)C(=O)N[C@@H](Cc1c[nH]c2ccccc12)C(=O)NCC(N)=O [NSC_123787],> 10 µM
3,H-SMEVRGW-OH [delta MSH],> 10 µM
4,H-SYSMEHFRWGKPVGKKRRPVKVYPNGAEDESAEAFPLEF-OH [ACTH],0.693 µM
5,H-YVMGHFRWDRFGRRNGSSSSGVGGAAQ-OH [Gamma3-MSH],> 10 µM
